Legend:
[1] = target: T1, Human M2 (Homo sapiens, UniProt P08172); experiment: M2 cell-based functional assay, calcium mobilization (selectivity); conditions: for Emax at 30 µM: % ACh maximum at 30 μM; for EC50 / Human M2 EC50: M2 cell-based functional assay, calcium flux
T1 construct: expressed in transfected cells; host or cells: CHO-K1
T1 sequence (P08172 1-466): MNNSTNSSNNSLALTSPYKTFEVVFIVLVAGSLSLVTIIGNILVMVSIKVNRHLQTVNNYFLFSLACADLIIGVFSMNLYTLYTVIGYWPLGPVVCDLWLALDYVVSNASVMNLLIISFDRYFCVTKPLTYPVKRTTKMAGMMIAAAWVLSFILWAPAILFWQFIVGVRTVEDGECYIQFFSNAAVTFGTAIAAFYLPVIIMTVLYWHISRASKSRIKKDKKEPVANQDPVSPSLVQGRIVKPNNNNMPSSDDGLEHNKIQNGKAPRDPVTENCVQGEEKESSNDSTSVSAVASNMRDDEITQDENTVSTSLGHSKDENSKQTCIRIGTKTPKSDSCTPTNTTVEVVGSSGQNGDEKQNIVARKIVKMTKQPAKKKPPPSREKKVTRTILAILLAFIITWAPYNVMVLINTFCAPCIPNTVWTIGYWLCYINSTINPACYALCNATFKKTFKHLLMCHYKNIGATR
Description: (§1) The high throughput assay was employed to measure receptor-induced mobilization of intracellular calcium to determine compound activity. Test compound was added to cells expressing the muscarinic receptors that were loaded with calcium sensitive fluorescent dye. After a ˜2.5 minute incubation period, a submaximal (EC20) concentration of acetylcholine was added, and the response measured. This kinetic assay allows for simultaneous screening and potency determination of multiple pharmacological modes of action including agonist and potentiator activity. CHO-K1 cells stably expressing muscarinic receptors were plated in growth medium lacking G418 and hygromycin at 15,000 cells/20 μL/well in Greiner 384-well black-walled, tissue culture (TC)-treated, clear-bottom plates (Greiner Bio-One). Cells were incubated overnight at 37° C. and 5% CO2. The next day, calcium assay buffer (Hank's balanced salt solution (HBSS), 20 mM HEPES, 2.5 mM Probenecid, 4.16 mM sodium bicarbonate (Sigma-Aldrich, St. Louis, MO)) was prepared to dilute compounds, agonists, and Fluo-4-acetomethoxyester (Fluo-4-AM), fluorescent calcium indicator dye. Compounds were serially diluted 1:3 into 10 point concentration response curves in DMSO using the Bravo Liquid Handler (Agilent, Santa Clara, CA), transferred to a 384 well daughter plates using an Echo acoustic liquid handler (Beckman Coulter, Indianapolis, Indiana), and diluted in assay Buffer to a 2× final concentration. The agonist plates were prepared using acetylcholine (ACh, Sigma-Aldrich, St. Louis, MO) concentrations for the EC20 and ECMAX responses by diluting in assay buffer to a 5× final concentration. The 2× dye solution (2.3 μM) was prepared by mixing a 2.3 mM Fluo-4-AM stock in DMSO with 10% (w/v) pluronic acid F-127 in a 1:1 ratio in assay buffer. Using a microplate washer (BioTek, Winooski, VT), cells were washed with assay buffer for 3 times to remove medium. After the final wash, 20 μL of assay buffer remained in the cell plates. Immediately, 20 μL of the 2× dye solution (final 1.15 μM) was added to each well of the cell plate using a Multidrop Combi dispenser (Thermo Fisher, Waltham, MA). After cells were incubated with the dye solutions for 45 min at 37° C. in the presence of 5% CO2, the dye solutions were removed and replaced with assay buffer using a microplate washer, leaving 20 μL of assay buffer in the cell plate.
The prepared compound, agonist, and cell plates were placed inside the Functional Drug Screening System uCell (FDSS uCell, Hamamatsu, Japan) to measure the calcium flux. The triple add protocol was used to measure Ca kinetics; Compound, ACh for EC20, and ACh for EC80 adds in an order. Briefly, after establishment of a fluorescence baseline for 2 seconds (excitation, 480 nm; emission, 530 nm), first add occurred by adding 20 μL of test compound to the cells, and the response was measured for 140 seconds. This is followed by second add; 10 μL (5×) of an EC20 concentration of ACh agonist was added to the cells, and the response of the cells was measured for 125 seconds. Immediately, the third add occurred by adding […] (5×) of an EC80 concentration of ACh and the response of the cells was measured for 90 seconds. Acetylcholine-mediated maximum response (ECmax) was measured by adding 1 mM ACh as third add in the control wells. DMSO vehicle was added to the control wells in the first add for assessing ACh EC20, EC80, and ECmax responses. Calcium fluorescence was recorded as fold over basal fluorescence and raw data were normalized to the maximal response to ACh agonist. Agonist activity was analyzed as a concentration-dependent increase in calcium mobilization upon compound addition. Positive allosteric modulator activity was analyzed as a concentration-dependent increase in the EC20 acetylcholine response. Antagonist activity was analyzed as a concentration-dependent decrease in the EC80 acetylcholine response. […]

[2] = target: T2, Human M4 (Homo sapiens, UniProt P08173); experiment: M4 cell-based functional assay, calcium mobilization, potentiation of ACh EC20; conditions: for Emax at 30 µM: % ACh maximum at 30 μM; for EC50: CHO-K1 hM4-Gqi5 cells, calcium flux, ACh EC20
T2 construct: expressed in transfected cells
T2 sequence (P08173 1-479): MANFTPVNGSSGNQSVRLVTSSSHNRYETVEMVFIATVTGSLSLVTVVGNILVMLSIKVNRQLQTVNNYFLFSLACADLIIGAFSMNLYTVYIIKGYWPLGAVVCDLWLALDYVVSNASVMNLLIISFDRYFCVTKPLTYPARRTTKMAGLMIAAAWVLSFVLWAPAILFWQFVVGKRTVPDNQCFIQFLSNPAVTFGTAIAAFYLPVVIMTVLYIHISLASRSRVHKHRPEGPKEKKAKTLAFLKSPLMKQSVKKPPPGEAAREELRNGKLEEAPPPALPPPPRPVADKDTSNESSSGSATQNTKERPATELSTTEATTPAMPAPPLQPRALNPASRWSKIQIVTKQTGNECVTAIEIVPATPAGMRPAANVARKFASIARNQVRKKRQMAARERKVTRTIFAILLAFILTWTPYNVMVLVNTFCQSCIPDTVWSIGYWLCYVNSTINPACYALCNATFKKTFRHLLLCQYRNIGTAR
Description: Human and rat M4 cDNAs, along with the chimeric G protein Gqi5, were transfected into Chinese hamster ovary (CHO-K1) cells purchased from the American Type Culture Collection using Lipofectamine2000. The transfected cells were subjected to selection antbiotic treatment to generate stable cell lines; G418 sulfate (1 mg/ml) for selecting M4 expressing cells and Hygromycin B (500 μg/mL) for selecting Gqi5 expressing cells. The resulting polyclones were further screened to obtain monoclones of hM4-Gqi5 and rM4-Gqi5 for compound screening assay. Stable monoclone cells were maintained in Ham's F-12 medium containing 10% heat-inactivated fetal bovine serum (FBS), 1× Antibiotic/Antimycotic, 20 mM HEPES, 500 μg/mL G418 sulfate, and 200 μg/mL Hygromycin B in 37° C. humidified incubators in the presence of 5% CO2.
as §1
The prepared compound, agonist, and cell plates were placed inside the Functional Drug Screening System uCell (FDSS uCell, Hamamatsu, Japan) to measure the calcium flux. The triple add protocol was used to measure Ca kinetics; Compound, ACh for EC20, and ACh for EC80 adds in an order. Briefly, after establishment of a fluorescence baseline for 2 seconds (excitation, 480 nm; emission, 530 nm), first add occurred by adding 20 μL of test compound to the cells, and the response was measured for 140 seconds. This is followed by second add; 10 μL (5×) of an EC20 concentration of ACh agonist was added to the cells, and the response of the cells was measured for 125 seconds. […]

SMILES	Emax at 30 µM [1]	EC50 [1]	Emax at 30 µM [2]	EC50 [2]	Human M2 EC50 [1]
[2H]C1([2H])Oc2ccc(OC3CCN(c4nc5nn(CCOC)c(=O)n5cc4C)CC3)cc2OC1([2H])[2H] [Compound A3, 7-(4-((2,3-dihydrobenzo[b][1,4]dioxin-6-yl-2,2,3,3-d4)oxy)piperidin-1-yl)-2-(2-methoxyethyl)-6-methyl-[1,2,4]triazolo[4,3-a]pyrimidin-3(2H)-one]	55%	5.41 µM	79%	0.008 µM	–
[2H]C([2H])([2H])n1nc2nc(N3CCC(Oc4ccc5c(c4)OC([2H])([2H])C([2H])([2H])O5)CC3)c(C)c(C3CC3)n2c1=O [Compound A13, 5-cyclopropyl-7-(4-((2,3-dihydrobenzo[b][1,4]dioxin-6-yl-2,2,3,3-d4)oxy)piperidin-1-yl)-6-methyl-2-(methyl-d3)-[1,2,4]triazolo[4,3-a]pyrimidin-3(2H)-one]	–	–	103%	0.028 µM	Inactive
[2H]C1([2H])Oc2ccc(OC3CCN(c4nc5nn(C)c(=O)n5c(Cl)c4C)CC3)cc2OC1([2H])[2H] [Compound A11, 5-chloro-7-(4-((2,3-dihydrobenzo[b][1,4]dioxin-6-yl-2,2,3,3-d4)oxy)piperidin-1-yl)-2,6-dimethyl-[1,2,4]triazolo[4,3-a]pyrimidin-3(2H)-one]	57%	6.09 µM	90%	0.012 µM	–
[2H]C1([2H])Oc2ccc(OC3CCN(c4nc5nn(C)c(=O)n5c5c4CCC5)CC3)cc2OC1([2H])[2H] [Compound A14, 5-(4-((2,3-dihydrobenzo[b][1,4]dioxin-6-yl-2,2,3,3-d4)oxy)piperidin-1-yl)-2-methyl-2,6,7,8-tetrahydro-1H-cyclopenta[e][1,2,4]triazolo[4,3-a]pyrimidin-1-one]	60%	2.23 µM	84%	0.003 µM	–
[2H]C1([2H])CC(Oc2ccc3c(c2)OC([2H])([2H])C([2H])([2H])O3)CC([2H])([2H])N1c1nc2c(cc1C)C(=O)NC2 [Compound 2, 2-(4-((2,3-dihydrobenzo[b][1,4]dioxin-6-yl-2,2,3,3-d4)oxy)piperidin-1-yl-2,2,6,6-d4)-3-methyl-6,7-dihydro-5H-pyrrolo[3,4-b]pyridin-5-one]	57%	0.567 µM	91%	0.003 µM	–

The next lines start with the values.

Emax at 30 µM [1]	EC50 [1]	Emax at 30 µM [2]	EC50 [2]	Human M2 EC50 [1]	SMILES
–	–	101%	0.004 µM	inactive	[2H]C1([2H])Oc2ccc(OC3CCN(c4nc5c(c(C)c4C)C(=O)NC5)CC3)cc2OC1([2H])[2H] [Compound 13, 2-(4-((2,3-dihydrobenzo[b][1,4]dioxin-6-yl-2,2,3,3-d4)oxy)piperidin-1-yl)-3,4-dimethyl-6,7-dihydro-5H-pyrrolo[3,4-b]pyridin-5-one]
56%	0.494 µM	104%	0.003 µM	–	[2H]C1([2H])Oc2ccc(OC3CCN(c4nc5c(cc4C)C(=O)OC5)CC3)cc2OC1([2H])[2H] [Compound 8, 2-(4-((2,3-dihydrobenzo[b][1,4]dioxin-6-yl-2,2,3,3-d4)oxy)piperidin-1-yl)-3-methylfuro[3,4-b]pyridin-5(7H)-one]
70%	0.884 µM	82%	0.002 µM	–	[2H]C1([2H])Oc2ccc(OC3CCN(c4nc5nn(CC)c(=O)n5cc4C)CC3)cc2OC1([2H])[2H] [Compound A2, 7-(4-((2,3-dihydrobenzo[b][1,4]dioxin-6-yl-2,2,3,3-d4)oxy)piperidin-1-yl)-2-ethyl-6-methyl-[1,2,4]triazolo[4,3-a]pyrimidin-3(2H)-one]
